Data reported in US10300067B2, “Tetrahydropyridopyrimidine compound or salt thereof” (TAIHO PHARMACEUTICAL CO., LTD., priority 2014, dated 2019).
pIC50: −log10 of the molar value.

How the values were obtained:
Type in all cases: cell-based
androgen receptor = androgen receptor (Homo sapiens (Human), UniProt P10275, T878A); assay: Activity of reducing expression level of androgen receptor (Western blotting of LNCaP cell lysate); settings: 48 hours
Protocol: AR positive human prostate cancer cells LNCaP were seeded in a clear bottom 6 well microplate (BD) at 3.5×10^5/well with phenol red free RPMI1640 containing 5% FBS (hereinbelow, the medium is referred to as an evaluation medium), and then cultured overnight. The culture was added with the evaluation medium containing the compound of Examples or the compound of Comparative Examples such that the final concentration of the compound of Examples or the compound of Comparative Examples was 10000 nmol/L, followed by culture for 48 hours. After culture for 48 hours, the medium was removed and the cells were washed with PBS and added with 0.1 mL of Lysis buffer (M-PER added with Protease Inhibitor Cocktail), followed by keeping at 4° C. for 20 minutes. After cell lysis, the cell solution was centrifuged to recover the supernatant as cell lysate. […] The antibody-reacting band (anti AR receptor) was quantified by LAS-3000 (FUJIFILM) using Super Signal West Pico Substrate (Thermo Scientific) as a detection reagent.

human androgen receptor = human androgen receptor (Homo sapiens (Human), UniProt P10275); assay: Antagonist activity for AR (pMMTV-luc reporter transcription activity in transfected COS-7 cells, DHT 1 nmol/L); settings: for pIC50: 50% transcription activity inhibition concentration, COS-7 cells with pMMTV-luc and pEX-hAR, DHT 1 nmol/L, 24 hours; for antagonist activity for AR (in words): COS-7 reporter assay
Protocol: Antagonist activity for AR was evaluated according to the following method. COS-7 cells (ATCC) were transfected with pMMTV-luc vector (reporter plasmid having, as an androgen response element, […] long terminal repeat) and pEX-hAR vector (human androgen receptor expression vector: which expresses human AR gene under control of CMV promoter) by using Nucleofector (registered trademark) Kit R (Lonza) as a transfection reagent and Amaxa (Lonza). The COS-7 cells obtained after transfection were seeded in a clear bottom 96 well microplate (BD) at 1.5×10^4/well with phenol red free RPMI1640 containing 10% charcoal-treated fetal bovine serum (hereinbelow, DCC-FBS) (hereinbelow, the medium is referred to as an evaluation medium), and then cultured overnight. […] Then, the transcription activity value was measured. The transcription activity was measured by using Bright-Glo™ Luciferase Assay System (Promega).

[1] = tested on: AR positive human prostate cancer cells VCaP; assay: Agonist activity for AR (cell proliferation rate of VCaP cells); settings: 72 hours, 2 to 10000 nmol/L, more than 10% at any concentration = agonist activity for AR
Protocol: AR positive human prostate cancer cells VCaP (In Vivo 15:163-168, 2001) were seeded in a clear bottom 96 well microplate (BD) at 1.5×10^4/well with phenol red free RPMI1640 containing 5% DCC-FBS (hereinbelow, the medium is referred to as an evaluation medium), and then cultured overnight. The culture was added with the evaluation medium containing the compound of Examples or the compound of Comparative Examples (final concentration of the compound of Examples or the compound of Comparative Examples: 2, 5, 14, 41, 123, 370, 1111, 3333, or 10000 nmol/L), followed by culture for 72 hours. Then, the number of viable cells was counted (test group). As a control, the cells were cultured after being added with the evaluation medium only, and the number of viable cells was counted (control group). The number of viable cells was measured by using CellTiter-Glo™ Luminescent Cell Viability Assay (Promega). From the measured number of viable cells, cell proliferation rate with respect to the compound of Examples or the compound of Comparative Examples was calculated based on the number of viable cells measured in the case of using the evaluation medium only. Cell proliferation rate (%) =(Number of viable cells in test group−Number of viable cells in control group)/(Number of viable cells in control group)×100
By considering an error in the number of viable cells measured in the case of using the evaluation medium only, when the cell proliferation rate was more than 10% at any concentration of the 9 concentrations which had been evaluated, it was determined to have an agonist activity for AR.

Sequence of androgen receptor (P10275 whole entry T878A): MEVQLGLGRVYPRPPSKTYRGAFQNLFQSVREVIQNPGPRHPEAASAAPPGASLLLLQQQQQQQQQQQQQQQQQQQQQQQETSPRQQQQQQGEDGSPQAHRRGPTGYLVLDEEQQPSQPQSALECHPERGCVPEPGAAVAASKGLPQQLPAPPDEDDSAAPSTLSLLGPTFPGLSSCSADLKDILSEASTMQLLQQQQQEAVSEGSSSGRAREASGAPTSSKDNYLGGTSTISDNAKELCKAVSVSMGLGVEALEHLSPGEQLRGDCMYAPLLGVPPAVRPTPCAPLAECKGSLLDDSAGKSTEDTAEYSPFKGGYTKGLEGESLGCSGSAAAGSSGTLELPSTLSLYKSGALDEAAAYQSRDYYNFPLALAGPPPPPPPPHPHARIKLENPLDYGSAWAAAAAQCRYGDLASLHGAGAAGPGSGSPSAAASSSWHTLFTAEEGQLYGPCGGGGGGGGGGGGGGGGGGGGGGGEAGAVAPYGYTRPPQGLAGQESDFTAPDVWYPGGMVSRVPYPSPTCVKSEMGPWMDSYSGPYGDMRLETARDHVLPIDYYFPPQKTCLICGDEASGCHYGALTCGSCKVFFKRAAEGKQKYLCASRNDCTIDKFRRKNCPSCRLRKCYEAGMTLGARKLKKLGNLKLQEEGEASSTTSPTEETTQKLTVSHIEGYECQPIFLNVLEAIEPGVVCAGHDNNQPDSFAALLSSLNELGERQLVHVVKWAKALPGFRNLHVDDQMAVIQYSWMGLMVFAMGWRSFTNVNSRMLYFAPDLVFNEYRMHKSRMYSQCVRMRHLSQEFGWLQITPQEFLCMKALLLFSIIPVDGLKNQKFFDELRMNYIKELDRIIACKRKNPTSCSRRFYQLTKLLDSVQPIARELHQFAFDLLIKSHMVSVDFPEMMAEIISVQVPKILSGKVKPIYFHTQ
Sequence of human androgen receptor (P10275 whole entry): as the sequence (P10275 whole entry T878A) above, with A878T counted along it

Compound | 10 μM AR expression reducing activity (androgen receptor) | pIC50 (human androgen receptor) | antagonist activity for AR (in words) (human androgen receptor) | Cell proliferation rate (%) [1] [%]
CC(C)Oc1ccc(Nc2nnc3n2CCN(c2ccc(C#N)c(C(F)(F)F)c2)C3)cc1 [Comparative Example 3, 4-(3-((4-Isopropoxyphenyl)amino)-5,6-dihydro[1,2,4]triazolo[4,3-a]pyrazin-7(8H)-yl)-2-(trifluoromethyl)benzonitrile, reference compound] | <10% | < 5.00 | no antagonist activity for AR | 
FC(F)(F)c1ccc(Nc2ncnc3c2CCN(c2ncccc2Cl)C3)cc1 [Comparative Example 4, 7-(3-Chloropyridin-2-yl)-N-(4-(trifluoromethyl)phenyl)-5,6,7,8-tetrahydropyrido[3,4-d]pyrimidin-4-amine, reference compound] | <10% | < 5.00 | no antagonist activity for AR | 
COc1ccc(Nc2ncnc3c2CCN(c2ccc(C#N)c(C(F)(F)F)c2)C3)cc1 [Example 3, 4-(4-((4-Methoxyphenyl)amino)-5,6-dihydropyrido[3,4-d]pyrimidin-7(8H)-yl)-2-(trifluoromethyl)benzonitrile] | reduced (When the AR expression reducing activity is 50% or more, it is described as “reduced”) | 6.28 |  | 1.0
N#Cc1ccc(N2CCc3c(ncnc3Nc3cccc(-c4ccccc4)c3)C2)cc1C(F)(F)F [Example 4, 4-(4-((1,1′-Biphenyl)-3-ylamino)-5,6-dihydropyrido[3,4-d]pyrimidin-7(8H)-yl)-2-(trifluoromethyl)benzonitrile] | reduced (When the AR expression reducing activity is 50% or more, it is described as “reduced”) | 6.21 |  | 
CC(C)(O)c1sc(Nc2ncnc3c2CCN(c2ccc(C#N)c(C(F)(F)F)c2)C3)nc1C(F)(F)F [Example 8, 4-(4-((5-(2-Hydroxypropan-2-yl)-4-(trifluoromethyl)thiazol-2-yl)amino)-5,6-dihydropyrido[3,4-d]pyrimidin-7(8H)-yl)-2-(trifluoromethyl)benzonitrile] | reduced (When the AR expression reducing activity is 50% or more, it is described as “reduced”) | 6.60 |  | 
N#Cc1ccc(N2CCc3c(ncnc3Nc3ccc(C4(O)CC4)cn3)C2)cc1C(F)(F)F [Example 12, 4-(4-((5-(1-Hydroxycyclopropyl)pyridin-2-yl)amino)-5,6-dihydropyrido[3,4-d]pyrimidin-7(8H)-yl)-2-(trifluoromethyl)benzonitrile] | reduced (When the AR expression reducing activity is 50% or more, it is described as “reduced”) | 6.77 |  | 
N#Cc1ccc(N2CCc3c(ncnc3Nc3nc(C(F)(F)F)c(C(=O)NCC(F)(F)F)s3)C2)cc1C(F)(F)F [Example 26, 2-((7-(4-Cyano-3-(trifluoromethyl)phenyl)-5,6,7,8-tetrahydropyrido[3,4-d]pyrimidin-4-yl)amino)-N-(2,2,2-trifluoroethyl)-4-(trifluoromethyl)thiazol-5-carboxamide] | reduced (When the AR expression reducing activity is 50% or more, it is described as “reduced”) | 7.22 |  | 5.7
C[C@@H](NC(=O)c1sc(Nc2ncnc3c2CCN(c2ccc(C#N)c(C(F)(F)F)c2)C3)nc1C(F)(F)F)c1nnco1 [Example 37, (R)—N-(1-(1,3,4-Oxadiazol-2-yl)ethyl)-2-((7-(4-cyano-3-(trifluoromethyl)phenyl)-5,6,7,8-tetrahydropyrido[3,4-d]pyrimidin-4-yl)amino)-4-(trifluoromethyl) thiazol-5-carboxamide] | reduced (When the AR expression reducing activity is 50% or more, it is described as “reduced”) | 6.77 |  | 0.9
C[C@@H](NC(=O)c1nnc(Nc2ncnc3c2CCN(c2ccc(C#N)c(C(F)(F)F)c2)C3)s1)c1nnco1 [Example 39, (R)—N-(1-(1,3,4-Oxadiazol-2-yl)ethyl)-5-((7-(4-cyano-3-(trifluoromethyl)phenyl)-5,6,7,8-tetrahydropyrido[3,4-d]pyrimidin-4-yl)amino)-1,3,4-thiadiazol-2-carboxamide] | reduced (When the AR expression reducing activity is 50% or more, it is described as “reduced”) | 5.69 |  | 5.5
CC(C)(O)c1ccc(Nc2ncnc3c2CCN(c2ccc(C#N)c(Br)c2)C3)nc1 [Example 44, 2-Bromo-4-(4-((5-(2-hydroxypropan-2-yl)pyridin-2-yl)amino)-5,6-dihydropyrido[3,4-d]pyrimidin-7(8H)-yl)benzonitrile] | reduced (When the AR expression reducing activity is 50% or more, it is described as “reduced”) | 7.30 |  | 5.2
CC(C)(O)c1ccc(Nc2ncnc3c2CCN(c2ccc(C#N)c(Cl)c2)C3)nc1F [Example 46, 2-Chloro-4-(4-((6-fluoro-5-(2-hydroxypropan-2-yl)pyridin-2-yl)amino)-5,6-dihydropyrido[3,4-d]pyrimidin-7 (8H)-yl)benzonitrile] | reduced (When the AR expression reducing activity is 50% or more, it is described as “reduced”) | 6.60 |  | 1.0
CC(C)(O)c1cnc(Nc2ncnc3c2CCN(c2ccc(C#N)c(C(F)(F)F)c2)C3)cc1F [Example 47, 4-(4-((4-Fluoro-5-(2-hydroxypropan-2-yl)pyridin-2-yl)amino)-5,6-dihydropyrido[3,4-d]pyrimidin-7 (8H)-yl)-2-(trifluoromethyl)benzonitrile] | reduced (When the AR expression reducing activity is 50% or more, it is described as “reduced”) | 7.15 |  | 1.9
N#Cc1ccc(N2CCc3c(ncnc3Nc3ccc(C(=O)NCC(F)(F)F)nn3)C2)cc1Cl [Example 49, 6-((7-(3-Chloro-4-cyanophenyl)-5,6,7,8-tetrahydropyrido[3,4-d]pyrimidin-4-yl)amino)-N-(2,2,2-trifluoroethyl)pyridazine-3-carboxamide] | reduced (When the AR expression reducing activity is 50% or more, it is described as “reduced”) | 8.70 |  | 
CC(C)(COc1ncc(Nc2ncnc3c2CCN(c2ccc(C#N)c(C(F)(F)F)c2)C3)cc1F)n1cnnn1 [Example 50, 4-(4-((5-Fluoro-6-(2-methyl-2-(1H-tetrazol-1-yl)propoxy)pyridin-3-yl)amino)-5,6-dihydropyrido[3,4-d]pyrimidin-7(8H)-yl)-2-(trifluoromethyl)benzonitrile] | reduced (When the AR expression reducing activity is 50% or more, it is described as “reduced”) | 6.49 |  | −3.7
CC(C)(O)c1ccc(Nc2ncnc3c2CCN(c2ccc(C#N)c(C(F)(F)F)c2)C3)cc1 [Example 57] | reduced (When the AR expression reducing activity is 50% or more, it is described as “reduced”) |  |  | 5.0
